According to patent publication EP4768018A1, “TOPICAL GEL FOR JAK INHIBITOR AND USE THEREOF” (Prime Gene Therapeutics Co., Ltd., priority 2023, dated 2025):
≈ marks a conversion by molar mass, not a printed value. Values belong to the molecule of their own block, whether it stands above or below them.

How the values were obtained:
[1] = Solubility of crystal forms in 20% propylene glycol at 32°C; assay type: physicochemical
Experimental: (§1) Solubility Study of Various Crystal Forms
Solubility in 20% Propylene Glycol at 32°C (µg/mL)

[2] = Solubility of crystal forms at different pH (37°C, 24 h); assay type: physicochemical
Experimental: as §1
Solubility Measurement Results (37°C, 24 h)

[3] = Long-term (24 months) stability study of crystal forms; assay type: physicochemical; conditions: for stability study result in words: 24 months
Experimental: In accordance with the stability study guidelines issued by the China's National Medical Products Administration (NMPA), stability studies were conducted on Crystal Forms I, IIa, and IIb. Samples were packaged in pharmaceutical low-density polyethylene bags, and long-term stability (24 months) was evaluated.

[4] = Crystal form conversion (room temperature; in the gel formulation, XRPD); assay type: physicochemical; conditions: for crystal form of the active pharmaceutical ingredient in the final gel formulation: after 3 days, XRPD, FIG. 5 to FIG. 6
Experimental: Crystal Form IIa converts to Crystal Form IIb within 1 hour at room temperature (58.6% RH). During the preparation of topical gel formulation, Crystal Form I and Crystal Form IIb were respectively used as active pharmaceutical ingredients.

[5] = Transdermal test of crystal forms as topical gel in rats (permeation, drug content in skin by LC/MS/MS); assay type: in vivo, rat; conditions: topical gel according to the compositions of Example 1; FIG. 10A and FIG. 10B; Crystal Form I versus Crystal Form IIb
Experimental: Crystal Forms I and IIb were prepared into topical gel formulations according to the compositions of Example 1, and transdermal tests were immediately conducted to determine their respective transdermal rates.
Blood samples were collected at 0.25, 0.5, 1, 2, 4, 6, 8, and 24 hours after topical administration. Using a small animal anesthesia machine, 0.3 mL of whole blood was collected from the retro-orbital venous plexus under isoflurane anesthesia and placed in heparin anticoagulant tubes. Samples were centrifuged at 4°C, 4000 rpm for 5 minutes, plasma was transferred to centrifuge tubes, and stored at -80°C until analysis. Samples in plasma were extracted using protein precipitation, and the extract was analyzed by LC/MS/MS. After the test, the drug on skin was washed off, and the rat skin at administration site was excised, homogenized, and analyzed by LC/MS/MS for drug content in the skin. Table 4 Drug Concentration in Skin 24 h After Topical Administration

[6] = Storage stability of Crystal Form III (NMR); assay type: physicochemical
Experimental: Add 15 mg of 2-{3-[3-amino-4-(7H-pyrrolo[2,3-d]pyrimidin-4-yl)-1H-pyrazol-1-yl]-1-(isopropylsulfonyl)azetidin-3-yl}acetonitrile to 3 mL of dioxane, heat to 40°C to dissolve and obtain a clear solution, filter, and allow the solution to crystallize by evaporation at 40°C to obtain Crystal Form III.

Solubility in 20% Propylene Glycol at 32°C ([1]; 10 min): 12.7 µg/mL (≈ 31.7 µM)
Solubility in 20% Propylene Glycol at 32°C ([1]; 30 min): 26.9 µg/mL (≈ 67.2 µM)
Solubility in 20% Propylene Glycol at 32°C ([1]; 1 h, 60 min): 35.8 µg/mL (≈ 89.4 µM)
Solubility in 20% Propylene Glycol at 32°C ([1]; 2 h, 120 min): 42.1 µg/mL (≈ 105 µM)
Solubility Conc. ([2]; pH 1.0, 1440 min): 464.2 µg/mL (≈ 1160 µM)
Solubility Conc. ([2]; pH 2.0, 1440 min): 37.8 µg/mL (≈ 94.4 µM)
Solubility Conc. ([2]; pH 3.8, 1440 min): 2.3 µg/mL (≈ 5.74 µM)
Solubility Conc. ([2]; pH 4.5, 1440 min): 1.8 µg/mL (≈ 4.49 µM)
Solubility Conc. ([2]; pH 5.5, 1440 min): 1.6 µg/mL (≈ 4 µM)
Appearance ([3]; 0 month): Off-white powder
Content ([3]; 0 month): 99.9%
Loss on Drying ([3]; 0 month): 0.08%
Related Substances Max Unknown Single Impurity ([3]; 0 month): 0.17%
Related Substances Total Impurity ([3]; 0 month): 0.58%
Appearance ([3]; 3 month): Off-white powder
Loss on Drying ([3]; 3 month): 0.06%
Related Substances Max Unknown Single Impurity ([3]; 3 month): 0.16%
Related Substances Total Impurity ([3]; 3 month): 0.57%
Content ([3]; 3 month, 131040 min): 100.1%
Appearance ([3]; 6 month): Off-white powder
Loss on Drying ([3]; 6 month): 0.08%
Related Substances Max Unknown Single Impurity ([3]; 6 month): 0.17%
Related Substances Total Impurity ([3]; 6 month): 0.57%
Content ([3]; 6 month, 263520 min): 100.0%
Appearance ([3]; 9 month): Off-white powder
Loss on Drying ([3]; 9 month): 0.11%
Related Substances Max Unknown Single Impurity ([3]; 9 month): 0.17%
Related Substances Total Impurity ([3]; 9 month): 0.57%
Content ([3]; 9 month, 394560 min): 99.8%
Appearance ([3]; 12 month): Off-white powder
Loss on Drying ([3]; 12 month): 0.09%
Related Substances Max Unknown Single Impurity ([3]; 12 month): 0.17%
Related Substances Total Impurity ([3]; 12 month): 0.55%
Content ([3]; 12 month, 525600 min): 99.9%
Appearance ([3]; 18 month): Off-white powder
Loss on Drying ([3]; 18 month): 0.12%
Related Substances Max Unknown Single Impurity ([3]; 18 month): 0.18%
Related Substances Total Impurity ([3]; 18 month): 0.62%
Content ([3]; 18 month, 789120 min): 99.7%
Appearance ([3]; 24 month): Off-white powder
Loss on Drying ([3]; 24 month): 0.10%
Related Substances Max Unknown Single Impurity ([3]; 24 month): 0.16%
Related Substances Total Impurity ([3]; 24 month): 0.59%
Content ([3]; 24 month, 1.0512e+06 min): 99.8%
stability study result in words [3]: good chemical stability
crystal form of the active pharmaceutical ingredient in the final gel formulation [4]: exclusively in form IIb
transdermal performance [5]: better transdermal performance
SMILES: CC(C)S(=O)(=O)N1CC(CC#N)(n2cc(-c3ncnc4[nH]ccc34)c(N)n2)C1 [Crystal Form I, 2-{3-[3-amino-4-(7H-pyrrolo[2,3-d]pyrimidin-4-yl)-1H-pyrazol-1-yl]-1-(isopropylsulfonyl)azetidin-3-yl}acetonitrile Crystal Form I]

impurity formation ([6]; after storage, NMR): approximately 10%
stability ([6]; in words): poor stability
SMILES: CC(C)S(=O)(=O)N1CC(CC#N)(n2cc(-c3ncnc4[nH]ccc34)c(N)n2)C1 [Crystal Form III, 2-{3-[3-amino-4-(7H-pyrrolo[2,3-d]pyrimidin-4-yl)-1H-pyrazol-1-yl]-1-(isopropylsulfonyl)azetidin-3-yl}acetonitrile Crystal Form III]

Appearance ([3]; 0 month): Off-white powder
Content ([3]; 0 month): 99.8%
Crystal Form ([3]; 0 month): IIa
Loss on Drying ([3]; 0 month): 0.06%
Related Substances Max Unknown Single Impurity ([3]; 0 month): 0.06%
Related Substances Total Impurity ([3]; 0 month): 0.28%
Appearance ([3]; 3 month): Off-white powder
Crystal Form ([3]; 3 month): IIb
Loss on Drying ([3]; 3 month): 0.18%
Related Substances Max Unknown Single Impurity ([3]; 3 month): 0.08%
Related Substances Total Impurity ([3]; 3 month): 0.28%
Content ([3]; 3 month, 131040 min): 97.6%
Appearance ([3]; 6 month): Off-white powder
Crystal Form ([3]; 6 month): IIb
Loss on Drying ([3]; 6 month): 0.19%
Related Substances Max Unknown Single Impurity ([3]; 6 month): 0.11%
Related Substances Total Impurity ([3]; 6 month): 0.27%
Content ([3]; 6 month, 263520 min): 97.8%
Appearance ([3]; 9 month): Off-white powder
Crystal Form ([3]; 9 month): IIb
Loss on Drying ([3]; 9 month): 0.24%
Related Substances Max Unknown Single Impurity ([3]; 9 month): 0.06%
Related Substances Total Impurity ([3]; 9 month): 0.24%
Content ([3]; 9 month, 394560 min): 97.9%
Appearance ([3]; 12 month): Off-white powder
Crystal Form ([3]; 12 month): IIb
Loss on Drying ([3]; 12 month): 0.20%
Related Substances Max Unknown Single Impurity ([3]; 12 month): 0.09%
Related Substances Total Impurity ([3]; 12 month): 0.22%
Content ([3]; 12 month, 525600 min): 97.8%
Appearance ([3]; 18 month): Off-white powder
Crystal Form ([3]; 18 month): IIb
Loss on Drying ([3]; 18 month): 0.16%
Related Substances Max Unknown Single Impurity ([3]; 18 month): 0.07%
Related Substances Total Impurity ([3]; 18 month): 0.26%
Content ([3]; 18 month, 789120 min): 98.0%
Appearance ([3]; 24 month): Off-white powder
Crystal Form ([3]; 24 month): IIb
Loss on Drying ([3]; 24 month): 0.25%
Related Substances Max Unknown Single Impurity ([3]; 24 month): 0.08%
Related Substances Total Impurity ([3]; 24 month): 0.29%
Content ([3]; 24 month, 1.0512e+06 min): 97.8%
time of conversion to Crystal Form IIb ([4]; room temperature (58.6% RH)): ≤ 1 h
SMILES: CC(C)S(=O)(=O)N1CC(CC#N)(n2cc(-c3ncnc4[nH]ccc34)c(N)n2)C1 [Crystal Form IIa, 2-{3-[3-amino-4-(7H-pyrrolo[2,3-d]pyrimidin-4-yl)-1H-pyrazol-1-yl]-1-(isopropylsulfonyl)azetidin-3-yl}acetonitrile Crystal Form IIa]
stability study result in words [3]: gradually absorbs moisture during storage and converts to Crystal Form IIb

Solubility in 20% Propylene Glycol at 32°C ([1]; 10 min): 6.1 µg/mL (≈ 15.2 µM)
Solubility in 20% Propylene Glycol at 32°C ([1]; 30 min): 9.5 µg/mL (≈ 23.7 µM)
Solubility in 20% Propylene Glycol at 32°C ([1]; 1 h, 60 min): 10.8 µg/mL (≈ 27 µM)
Solubility in 20% Propylene Glycol at 32°C ([1]; 2 h, 120 min): 11.2 µg/mL (≈ 28 µM)
Solubility in 20% Propylene Glycol at 32°C ([1]; 18 h, 1080 min): 13.3 µg/mL (≈ 33.2 µM)
Solubility Conc. ([2]; pH 1.0, 1440 min): 149.9 µg/mL (≈ 374 µM)
Solubility Conc. ([2]; pH 2.0, 1440 min): 17.4 µg/mL (≈ 43.4 µM)
Solubility Conc. ([2]; pH 3.8, 1440 min): 0.9 µg/mL (≈ 2.25 µM)
Solubility Conc. ([2]; pH 4.5, 1440 min): 0.7 µg/mL (≈ 1.75 µM)
Solubility Conc. ([2]; pH 5.5, 1440 min): 0.5 µg/mL (≈ 1.25 µM)
Solubility Conc. ([2]; pH 6.8, 1440 min): 0.6 µg/mL (≈ 1.5 µM)
Solubility Conc. ([2]; pH 7.0, 1440 min): 0.8 µg/mL (≈ 2 µM)
Solubility Conc. ([2]; pH 8.0, 1440 min): 0.7 µg/mL (≈ 1.75 µM)
Appearance ([3]; 0 month): Off-white powder
Content ([3]; 0 month): 99.7%
Crystal Form ([3]; 0 month): IIb
Loss on Drying ([3]; 0 month): 0.36%
Related Substances Max Unknown Single Impurity ([3]; 0 month): 0.07%
Related Substances Total Impurity ([3]; 0 month): 0.38%
Appearance ([3]; 3 month): Off-white powder
Crystal Form ([3]; 3 month): IIb
Loss on Drying ([3]; 3 month): 0.36%
Related Substances Max Unknown Single Impurity ([3]; 3 month): 0.08%
Related Substances Total Impurity ([3]; 3 month): 0.38%
Content ([3]; 3 month, 131040 min): 99.7%
Appearance ([3]; 6 month): Off-white powder
Crystal Form ([3]; 6 month): IIb
Loss on Drying ([3]; 6 month): 0.39%
Related Substances Max Unknown Single Impurity ([3]; 6 month): 0.08%
Related Substances Total Impurity ([3]; 6 month): 0.37%
Content ([3]; 6 month, 263520 min): 99.6%
Appearance ([3]; 9 month): Off-white powder
Crystal Form ([3]; 9 month): IIb
Loss on Drying ([3]; 9 month): 0.34%
Related Substances Max Unknown Single Impurity ([3]; 9 month): 0.08%
Related Substances Total Impurity ([3]; 9 month): 0.38%
Content ([3]; 9 month, 394560 min): 99.5%
Appearance ([3]; 12 month): Off-white powder
Crystal Form ([3]; 12 month): IIb
Loss on Drying ([3]; 12 month): 0.30%
Related Substances Max Unknown Single Impurity ([3]; 12 month): 0.07%
Related Substances Total Impurity ([3]; 12 month): 0.37%
Content ([3]; 12 month, 525600 min): 99.6%
Appearance ([3]; 18 month): Off-white powder
Crystal Form ([3]; 18 month): IIb
Loss on Drying ([3]; 18 month): 0.31%
Related Substances Max Unknown Single Impurity ([3]; 18 month): 0.07%
Related Substances Total Impurity ([3]; 18 month): 0.39%
Content ([3]; 18 month, 789120 min): 99.6%
Appearance ([3]; 24 month): Off-white powder
Crystal Form ([3]; 24 month): IIb
Loss on Drying ([3]; 24 month): 0.32%
Related Substances Max Unknown Single Impurity ([3]; 24 month): 0.08%
Related Substances Total Impurity ([3]; 24 month): 0.39%
Content ([3]; 24 month, 1.0512e+06 min): 99.7%
stability study result in words [3]: good chemical stability
crystal form of the active pharmaceutical ingredient in the final gel formulation [4]: exclusively in form IIb
SMILES: CC(C)S(=O)(=O)N1CC(CC#N)(n2cc(-c3ncnc4[nH]ccc34)c(N)n2)C1 [Crystal Form IIb, 2-{3-[3-amino-4-(7H-pyrrolo[2,3-d]pyrimidin-4-yl)-1H-pyrazol-1-yl]-1-(isopropylsulfonyl)azetidin-3-yl}acetonitrile Crystal Form IIb]
